The source made the active and inactive calls. The rule behind the calls is not given here.
Key:
Assay type in all cases: functional, organism-based
[1] = system: Nicotiana tabacum; experiment: Phytotoxicity against Nicotiana tabacum at 500 ppm after 7 days
[2] = system: Nicotiana tabacum; experiment: Phytotoxicity against Nicotiana tabacum at 1000 ppm after 7 days
[3] = system: Nicotiana tabacum; experiment: Phytotoxicity against Nicotiana tabacum at 250 ppm after 7 days

Row | SMILES | Activity [1] | also measured
1 | Cc1ccc2c(c1CO)[C@@](C)(CO)CC2(C)C | Active | –
2 | COC(=O)[C@H]1[C@H](C)C[C@H](OC(C)=O)[C@H]2C(C)(C)C[C@](C)(CO)[C@@]12O | Active | –
3 | CO[C@H]1O[C@H](OC)[C@@]2(C)CC(C)(C)[C@@H]3[C@@H](OC(C)=O)C[C@@H](C)[C@H]1[C@@]32O | – | Activity [2]: Active
4 | C=CC1=C(/C(=C\C)CO)[C@@](C)(CO)CC1(C)C | Active | –
5 | CC1(C)C[C@](C)(CO)c2c1ccc(CO)c2CO | – | Activity [3]: Active
